≈ marks a conversion by molar mass, not a printed value. Like-named read-outs stand apart in the source and are kept apart here.
Assays:
T98G (glioblastoma) = assay: cells; format: cell-based; details: glioma, 3 days with drug, means of six values, unit inferred, read-out: IC50 T98G
Experimental: (§1) A549 (human lung adenocarcinoma epithelial), BxPC3 (pancreatic cancer), LoVo (colon cancer), MCF-7 (epithelial breast cancer), PC3 (human prostate cancer), Hs683 (human glioma), T98G (glioblastoma), U373 (human glioblastoma-astrocytoma), U138 MG (human glioma), epithelial-like), SKMEL28 (human melanoma), B16-F10 (mouse melanoma) and RhTP (rhabdomyosarcoma) cell lines were cultured in presence of the drugs for 3 days. The cytotoxic activity is expressed as (IC50). Inhibition of cell proliferation measured by the MTT colorimetric assay. The values reported in Table 4 are means of six distinct values.

GL19 = assay: Growth inhibition, MTT colorimetric assay, GL19; format: cell-based; details: 3 days with drug, means of six values, unit inferred, read-out: IC50 GL19
Experimental: as §1, with “Compounds that met the criteria for activity on KB3 cells were further tested for drug growth inhibitory activity in 5 carcinoma, 6 glioma and 3 melanoma cell lines, shown in Table 4. A549” for “A549”, “values. The standard errors are <5% as compared to the mean values.” for “values.”

RhTP (rhabdomyosarcoma) = assay: Growth inhibition, MTT colorimetric assay, RhTp; format: cell-based; details: 3 days with drug, means of six values, unit inferred, read-out: IC50 RhTp
Experimental: as §1, with “Compounds that met the criteria for activity on KB3 cells were further tested for drug growth inhibitory activity in 5 carcinoma, 6 glioma and 3 melanoma cell lines, shown in Table 4. A549” for “A549”, “values. The standard errors are <5% as compared to the mean values.” for “values.”

[1] = tested on: PC3 (human prostate cancer); assay: Growth inhibition, MTT colorimetric assay, PC3; format: cell-based; details: carcinoma, 3 days with drug, means of six values, unit inferred, read-out: IC50 PC3
Experimental: as §1, with “Compounds that met the criteria for activity on KB3 cells were further tested for drug growth inhibitory activity in 5 carcinoma, 6 glioma and 3 melanoma cell lines, shown in Table 4. A549” for “A549”, “values. The standard errors are <5% as compared to the mean values.” for “values.”

Host = assay: Growth inhibition, MTT colorimetric assay, Host; format: cell-based; details: 3 days with drug, means of six values, unit inferred, read-out: IC50 Host
Experimental: as §1, with “Compounds that met the criteria for activity on KB3 cells were further tested for drug growth inhibitory activity in 5 carcinoma, 6 glioma and 3 melanoma cell lines, shown in Table 4. A549” for “A549”, “values. The standard errors are <5% as compared to the mean values.” for “values.”

LoVo (colon cancer) = assay: Growth inhibition, MTT colorimetric assay, LoVo; format: cell-based; details: carcinoma, 3 days with drug, means of six values, unit inferred, read-out: IC50 LoVo
Experimental: as §1

[2] = tested on: bloodstream forms of T. brucei and T. congolense; assay: Trypanocidal activity in vitro, Alamar Blue assay; format: cell-based, Trypanosoma brucei and T. congolense; details: 48 h total incubation; for GI50: 50% growth inhibition, read-out: GI50; for MIC: lowest concentration at which all cells were killed, read-out: MIC
Excerpt: Trypanosoma brucei and T. congolense are the causative agents of sleeping sickness in humans and nagana in cattle, respectively. The protozoan parasites live extracellularlyin blood and tissue fluids of mammals and are transmitted by the bite of infected tsetse flies (Glossina spp.). Here the trypanocidal activity against bloodstream forms of T. brucei and T. congolense of bis-8-hydroxy quinoline N-substituted benzylamines derivatives was investigated in vitro, according to methods described in. Steverding et al. (2006) Kinetoplastid Biology and Disease, 5(3): 1-5; Hongmance et al., (2007) Antimicrob. Agents Chemother. 51:1105-1106; and Zhao et al., (2005) Bio-org. Med. Chem.; 13: 3921-3926. Cells were seeded into 96-well tissue culture plates in 200 μl medium containing various concentrations of analogues dissolved in H2O. The controls contained the respective solvent alone. […] After 24 h (trypanosomes) or 43 h (HL-60) incubation, 20 μl of the colorimetric viability indicator Alamar Blue® was added to each well. The cells were incubated for a further 24 h (trypanosomes) or 5 h (HL-60) so that the total incubation time was 48 h. Then, the plates were read on a Dynatech MR5000ELISA reader (Denkendorf, Germany),using a test wavelength of 550 nm and a reference wave length of 630 nm. Each test was set up in duplicate and repeated three times. For comparison, the general cytotoxicity of the compounds was assayed with human myeloid leukaemia HL-60 cells. The anti-trypanosomal activities and the general cytotoxicities of the new analogues were evaluated using the Alamar Blue® assay.

[3] = tested on: BxPC3 (pancreatic cancer); assay: Growth inhibition, MTT colorimetric assay, BxPC3; format: cell-based, human; details: carcinoma, 3 days with drug, means of six values, unit inferred, read-out: IC50 BxPC3
Experimental: Cells are cultured at 37° C. in Falcon culture dishes, incubated at 5% CO2 in a suitable culture medium available from Invitrogen Corp. Anti-proliferative activity is determined by an MTT assay (bromide of (3-[4,5-dimethylthiazolium-yl]diphenyltetrazolium)). According to one standard protocol, absorbance is measured at 570 nm (see Dumont et al. (2007) Neoplasia 9: 766-776.
as §1

KaKa = assay: Growth inhibition, MTT colorimetric assay, KaKa; format: cell-based; details: 3 days with drug, means of six values, unit inferred, read-out: IC50 KaKa
Experimental: as §1, with “Compounds that met the criteria for activity on KB3 cells were further tested for drug growth inhibitory activity in 5 carcinoma, 6 glioma and 3 melanoma cell lines, shown in Table 4. A549” for “A549”, “values. The standard errors are <5% as compared to the mean values.” for “values.”

[4] = tested on: A549 (human lung adenocarcinoma epithelial); assay: Growth inhibition, MTT colorimetric assay, A549; format: cell-based; details: carcinoma, 3 days with drug, means of six values, unit inferred, read-out: IC50 A549
Experimental: as §1

[5] = tested on: MCF-7 (epithelial breast cancer); assay: Growth inhibition, MTT colorimetric assay, MCF7; format: cell-based; details: carcinoma, 3 days with drug, means of six values, unit inferred, read-out: IC50 MCF7
Experimental: as §1

U138 MG (human glioma) = assay: Growth inhibition, MTT colorimetric assay, U138; format: cell-based; details: glioma, 3 days with drug, means of six values, unit inferred, read-out: IC50 U138
Experimental: as §1, with “Compounds that met the criteria for activity on KB3 cells were further tested for drug growth inhibitory activity in 5 carcinoma, 6 glioma and 3 melanoma cell lines, shown in Table 4. A549” for “A549”, “values. The standard errors are <5% as compared to the mean values.” for “values.”

B16-F10 (mouse melanoma) = assay: Growth inhibition, MTT colorimetric assay, B16F10; format: cell-based; details: melanoma, 3 days with drug, means of six values, unit inferred, read-out: IC50 B16F10
Experimental: as §1, with “Compounds that met the criteria for activity on KB3 cells were further tested for drug growth inhibitory activity in 5 carcinoma, 6 glioma and 3 melanoma cell lines, shown in Table 4. A549” for “A549”, “values. The standard errors are <5% as compared to the mean values.” for “values.”

Hs683 (human glioma) = assay: Growth inhibition, MTT colorimetric assay, HS683; format: cell-based; details: glioma, 3 days with drug, means of six values, unit inferred, read-out: IC50 HS683
Experimental: as §1

[6] = tested on: U373 (human glioblastoma-astrocytoma); assay: Growth inhibition, MTT colorimetric assay, U373; format: cell-based; details: glioma, 3 days with drug, means of six values, unit inferred, read-out: IC50 U373
Experimental: as §1, with “Compounds that met the criteria for activity on KB3 cells were further tested for drug growth inhibitory activity in 5 carcinoma, 6 glioma and 3 melanoma cell lines, shown in Table 4. A549” for “A549”, “values. The standard errors are <5% as compared to the mean values.” for “values.”

SKMEL28 (human melanoma) = assay: Growth inhibition, MTT colorimetric assay, SKMEL-28; format: cell-based; details: melanoma, 3 days with drug, means of six values, unit inferred, read-out: IC50 SKMEL-28
Experimental: as §1, with “Compounds that met the criteria for activity on KB3 cells were further tested for drug growth inhibitory activity in 5 carcinoma, 6 glioma and 3 melanoma cell lines, shown in Table 4. A549” for “A549”, “values. The standard errors are <5% as compared to the mean values.” for “values.”

[7] = tested on: KB3 (epitheloid lung cancer) cell lines; assay: Cell growth inhibition (cytotoxicity), MTS assay, KB3 cell line; format: cell-based; details: Table 3A, MTS assay, triplicate, read-out: KB3 IC50
Experimental: Cell growth inhibition was determined by the MTS assay; the number of viable cells were proportional to the extent of formazan production in the presence or absence of drugs. […]

SMILES | IC50 (T98G (glioblastoma)) | IC50 (GL19) | IC50 (RhTP (rhabdomyosarcoma)) | IC50 [1] | IC50 (Host) | IC50 (LoVo (colon cancer)) | GI50 [2] | MIC [2] | IC50 [3] | IC50 (KaKa) | IC50 [4] | IC50 [5] | IC50 (U138 MG (human glioma)) | IC50 (B16-F10 (mouse melanoma)) | IC50 (Hs683 (human glioma)) | IC50 [6] | IC50 (SKMEL28 (human melanoma)) | also measured
Oc1ccc(CN(Cc2ccc(O)c3ncccc23)CC2CCCCC2)c2cccnc12 [BPM19,219, 5,5′-cyclohexylmethylazanediyl-bis-[(methylene)di(quinolin-8-ol)]] | 486 nM | 8970 nM | 865 nM | 421 nM | 1540 nM | 357 nM | 2950 ± 180 nM | 10 µM (≈ 4.28 µg/mL) | 3810 nM | 5940 nM | 369 nM | 365 nM | 446 nM | 873 nM | 584 nM | 2570 nM | > 10000 nM | –
Oc1ccc(CN(Cc2ccccc2C(F)(F)F)Cc2ccc(O)c3ncccc23)c2cccnc12 [BPM19,178, 5,5-(2-(Trifluoromethyl)benzylazanediyl)bis(methylene)diquinolin-8-ol] | 210 nM | 472 nM | 87 nM | 179 nM | 912 nM | 93 nM | 330 ± 10 nM | 1 µM (≈ 0.489 µg/mL) | 274 nM | 887 nM | 46 nM | 88 nM | 80 nM | 98 nM | 64 nM | 78 nM | 6380 nM | IC50 [7]: 100 nM
Oc1ccc(CN(Cc2cccc(I)c2)Cc2ccc(O)c3ncccc23)c2cccnc12 [BPM19,200, 5,5′-(3-iodobenzylazanediyl)bis(methylene)diquinolin-8-ol] | – | – | – | – | – | – | – | – | – | – | – | – | – | – | – | – | – | IC50 (T98G (glioblastoma); Homo sapiens, T98G, 72 h): 446 nM; IC50 (GL19; GL19, 72 h): > 10000 nM; IC50 (RhTP (rhabdomyosarcoma); 72 h): 788 nM; IC50 ([1]; Homo sapiens, 72 h): 394 nM; IC50 (Host; 72 h): 2980 nM; IC50 (LoVo (colon cancer); Homo sapiens, LoVo, 72 h): 393 nM; IC50 ([3]; Homo sapiens, BXPC-3, 72 h): 3810 nM; IC50 (KaKa; 72 h): 7680 nM; IC50 ([4]; Homo sapiens, A549, 72 h): 350 nM; IC50 ([5]; Homo sapiens, MCF7, 72 h): 374 nM; IC50 (U138 MG (human glioma); Homo sapiens, U138-MG, 72 h): 430 nM; IC50 (B16-F10 (mouse melanoma); Mus musculus, B16-F10, 72 h): 888 nM; IC50 (Hs683 (human glioma); Homo sapiens, Hs 683, 72 h): 479 nM; IC50 ([6]; Homo sapiens, U373 MG, 72 h): 5600 nM; IC50 ([7]; KB3): 1000 nM; IC50 (SKMEL28 (human melanoma); Homo sapiens, SK-MEL-28, 72 h): 9850 nM
